Consider 25 molecules from patent publication US8003649B2 (AstraZeneca AB, priority 2007, dated 2011).

Each structure is given as a SMILES string.

This experiment concerns the target T1, Androgen Receptor (AR) (Homo sapiens, UniProt P10275, T878A).
T1 construct: cell based immuno-fluorescence assay using the LNCaP prostate epithelial cell line; endogenous in cells; host or cells: LNCaP clone FGC (ATCC CRL-1740)
T1 sequence (P10275 1-920 T878A): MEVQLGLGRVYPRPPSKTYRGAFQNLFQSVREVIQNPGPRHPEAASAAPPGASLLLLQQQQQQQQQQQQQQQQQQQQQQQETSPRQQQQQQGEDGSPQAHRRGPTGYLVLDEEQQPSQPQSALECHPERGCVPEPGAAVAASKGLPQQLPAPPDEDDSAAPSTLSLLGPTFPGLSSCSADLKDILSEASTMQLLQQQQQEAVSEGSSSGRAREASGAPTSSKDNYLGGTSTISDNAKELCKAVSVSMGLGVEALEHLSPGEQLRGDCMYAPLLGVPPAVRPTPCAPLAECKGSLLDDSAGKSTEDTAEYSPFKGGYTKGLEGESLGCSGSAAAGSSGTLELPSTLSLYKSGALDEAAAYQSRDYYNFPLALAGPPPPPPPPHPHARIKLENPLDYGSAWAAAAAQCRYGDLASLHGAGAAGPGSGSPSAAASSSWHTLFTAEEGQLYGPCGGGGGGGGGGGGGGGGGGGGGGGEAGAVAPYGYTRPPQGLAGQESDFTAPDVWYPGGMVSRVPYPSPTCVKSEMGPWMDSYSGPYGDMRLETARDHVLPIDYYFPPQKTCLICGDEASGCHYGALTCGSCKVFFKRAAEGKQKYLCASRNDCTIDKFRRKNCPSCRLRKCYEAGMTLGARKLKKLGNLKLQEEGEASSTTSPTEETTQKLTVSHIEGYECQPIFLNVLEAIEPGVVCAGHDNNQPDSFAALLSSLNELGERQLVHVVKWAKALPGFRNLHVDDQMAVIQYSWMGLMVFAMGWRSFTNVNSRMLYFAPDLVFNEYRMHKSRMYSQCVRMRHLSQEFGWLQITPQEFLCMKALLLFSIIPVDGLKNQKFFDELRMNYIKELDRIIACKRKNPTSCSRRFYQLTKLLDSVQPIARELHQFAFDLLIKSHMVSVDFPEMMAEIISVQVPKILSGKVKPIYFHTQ
The experiment is described as follows: LNCaP Androgen Receptor Down-regulation Cell Assay (immunofluorescence end point). The settings on record: LNCaP prostate carcinoma cells, compound incubation 20-22 hours, 50% reduction of the AR signal; read-out: Androgen Receptor Down-regulation Assay (a) IC50/μM. It is filed as cell-based. The gist of the method:
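AR loss reported as IC50 from curve fits of fluorescence dose-response data, with AR immunostained and read by laser-scanning cytometry. Compound exposure was 20-22 h at 37° C in LNCaP cells grown in 5% charcoal-stripped FBS and plated overnight beforehand.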
Turning to `FC(F)(F)c1nnc2ccc(N3CCN(Cc4ccc(N5CCOCC5)cc4)CC3)nn12` [Example 160, 6-[4-[(4-morpholin-4-ylphenyl)methyl]piperazin-1-yl]-3-(trifluoromethyl)-[1,2,4]triazolo[4,3-b]pyridazine], the DC50 turned out to be 6.6 µM.
Turning to `FC(F)Oc1ccc(CN2CCN(c3ccc4nnc(C(F)(F)F)n4n3)CC2)cc1` [Example 161, 6-[4-[[4-(difluoromethoxy)phenyl]methyl]piperazin-1-yl]-3-(trifluoromethyl)-[1,2,4]triazolo[4,3-b]pyridazine], the DC50 was 1.4 µM.
Regarding `FC(F)Oc1cccc(CN2CCN(c3ccc4nnc(C(F)(F)F)n4n3)CC2)c1` [Example 162, 6-[4-[[3-(difluoromethoxy)phenyl]methyl]piperazin-1-yl]-3-(trifluoromethyl)-[1,2,4]triazolo[4,3-b]pyridazine], the DC50 stood at 1 µM.
Consider `CCOC(=O)/C=C/c1ccc(CN2CCN(c3ccc4nnc(C(F)(F)F)n4n3)CC2)cc1` [Example 163, ethyl (E)-3-[4-[[4-[3-(trifluoromethyl)-[1,2,4]triazolo[4,3-b]pyridazin-6-yl]piperazin-1-yl]methyl]phenyl]prop-2-enoate], for which the DC50 was found to be 3.6 µM.
The same measure for `CS(=O)(=O)c1ccccc1CN1CCCN(c2ccc3nnc(C(F)(F)F)n3n2)CC1` [Example 164, 6-[4-[(2-methylsulfonylphenyl)methyl]-1,4-diazepan-1-yl]-3-(trifluoromethyl)-[1,2,4]triazolo[4,3-b]pyridazine]: 1.7 µM.
For `CS(=O)(=O)c1cccc(CN2CCCN(c3ccc4nnc(C(F)(F)F)n4n3)CC2)c1` [Example 165, 6-[4-[(3-methylsulfonylphenyl)methyl]-1,4-diazepan-1-yl]-3-(trifluoromethyl)-[1,2,4]triazolo[4,3-b]pyridazine], the DC50 was 1.7 µM.
Consider `COc1ccccc1CN1CCCN(c2ccc3nnc(C(F)(F)F)n3n2)CC1` [Example 167, 6-[4-[(2-methoxyphenyl)methyl]-1,4-diazepan-1-yl]-3-(trifluoromethyl)-[1,2,4]triazolo[4,3-b]pyridazine], for which the DC50 is 2.4 µM.
The same measure for `FC(F)(F)c1ccc(CN2CCCN(c3ccc4nnc(C(F)(F)F)n4n3)CC2)cc1` [Example 168, 3-(trifluoromethyl)-6-[4-[[4-(trifluoromethyl)phenyl]methyl]-1,4-diazepan-1-yl]-[1,2,4]triazolo[4,3-b]pyridazine]: 1.6 µM; for `Fc1ccccc1CN1CCCN(c2ccc3nnc(C(F)(F)F)n3n2)CC1` [Example 169, 6-[4-[(2-fluorophenyl)methyl]-1,4-diazepan-1-yl]-3-(trifluoromethyl)-[1,2,4]triazolo[4,3-b]pyridazine]: 0.92 µM.
`N#Cc1ccc(CN2CCCN(c3ccc4nnc(C(F)(F)F)n4n3)CC2)cc1` [Example 170, 4-[[4-[3-(trifluoromethyl)-[1,2,4]triazolo[4,3-b]pyridazin-6-yl]-1,4-diazepan-1-yl]methyl]benzonitrile]: the DC50 was determined as 0.61 µM.
Consider `N#Cc1cccc(CN2CCCN(c3ccc4nnc(C(F)(F)F)n4n3)CC2)c1` [Example 171, 3-[[4-[3-(trifluoromethyl)-[1,2,4]triazolo[4,3-b]pyridazin-6-yl]-1,4-diazepan-1-yl]methyl]benzonitrile], for which the DC50 worked out at 0.62 µM.
As to `Fc1cccc(CN2CCCN(c3ccc4nnc(C(F)(F)F)n4n3)CC2)c1` [Example 172, 6-[4-[(3-fluorophenyl)methyl]-1,4-diazepan-1-yl]-3-(trifluoromethyl)-[1,2,4]triazolo[4,3-b]pyridazine], the DC50 was found to be 0.81 µM.
For the molecule `FC(F)(F)c1nnc2ccc(N3CCCN(Cc4cccc(Cl)c4)CC3)nn12` [Example 175, 6-[4-[(3-chlorophenyl)methyl]-1,4-diazepan-1-yl]-3-(trifluoromethyl)-[1,2,4]triazolo[4,3-b]pyridazine], the DC50 came out at 0.68 µM.
With `FC(F)(F)c1nnc2ccc(N3CCCN(Cc4ccc(Cl)cc4)CC3)nn12` [Example 176, 6-[4-[(4-chlorophenyl)methyl]-1,4-diazepan-1-yl]-3-(trifluoromethyl)-[1,2,4]triazolo[4,3-b]pyridazine], the DC50 came to 0.85 µM.
The same measure for `Fc1ccc(CN2CCCN(c3ccc4nnc(C(F)(F)F)n4n3)CC2)cc1` [Example 177, 6-[4-[(4-fluorophenyl)methyl]-1,4-diazepan-1-yl]-3-(trifluoromethyl)-[1,2,4]triazolo[4,3-b]pyridazine]: 0.77 µM; for `Cc1cccc(CN2CCCN(c3ccc4nnc(C(F)(F)F)n4n3)CC2)c1` [Example 178, 6-[4-[(3-methylphenyl)methyl]-1,4-diazepan-1-yl]-3-(trifluoromethyl)-[1,2,4]triazolo[4,3-b]pyridazine]: 0.88 µM; for `FC(F)(F)c1cccc(CN2CCCN(c3ccc4nnc(C(F)(F)F)n4n3)CC2)c1` [Example 179, 3-(trifluoromethyl)-6-[4-[[3-(trifluoromethyl)phenyl]methyl]-1,4-diazepan-1-yl]-[1,2,4]triazolo[4,3-b]pyridazine]: 0.59 µM.
Turning to `COc1ccc(CN2CCCN(c3ccc4nnc(C(F)(F)F)n4n3)CC2)cc1` [Example 181, 6-[4-[(4-methoxyphenyl)methyl]-1,4-diazepan-1-yl]-3-(trifluoromethyl)-[1,2,4]triazolo[4,3-b]pyridazine], the DC50 is 2.1 µM.
`FC(F)(F)c1cccc(CN2CCN(c3ccc4nnc(C(F)(F)F)n4c3)CC2)c1` [Example 185, 3-(trifluoromethyl)-6-[4-[[3-(trifluoromethyl)phenyl]methyl]piperazin-1-yl]-[1,2,4]triazolo[4,3-a]pyridine]: the DC50 was determined as 0.68 µM.
`FC(F)(F)c1ccc(CN2CCN(c3ccc4nnc(C(F)(F)F)n4c3)CC2)cc1` [Example 186, 3-(trifluoromethyl)-6-[4-[[4-(trifluoromethyl)phenyl]methyl]piperazin-1-yl]-[1,2,4]triazolo[4,3-a]pyridine]: the DC50 is 2.8 µM.
Take `N#Cc1ccc(CN2CCN(c3ccc4nnc(C(F)(F)F)n4c3)CC2)cc1` [Example 187, 4-[[4-[3-(trifluoromethyl)-[1,2,4]triazolo[4,3-a]pyridin-6-yl]piperazin-1-yl]methyl]benzonitrile]: the DC50 is 4.7 µM.
As for `N#Cc1cccc(CN2CCN(c3ccc4nnc(C(F)(F)F)n4c3)CC2)c1` [Example 188, 3-[[4-[3-(trifluoromethyl)-[1,2,4]triazolo[4,3-a]pyridin-6-yl]piperazin-1-yl]methyl]benzonitrile], the figure is 2.2 µM; as for `Fc1cccc(CN2CCN(c3ccc4nnc(C(F)(F)F)n4c3)CC2)c1` [Example 189, 6-[4-[(3-fluorophenyl)methyl]piperazin-1-yl]-3-(trifluoromethyl)-[1,2,4]triazolo[4,3-a]pyridine], 1.1 µM.
Take `FC(F)(F)c1nnc2ccc(N3CCN(Cc4ccc(Cl)cc4)CC3)cn12` [Example 190, 6-[4-[(4-chlorophenyl)methyl]piperazin-1-yl]-3-(trifluoromethyl)-[1,2,4]triazolo[4,3-a]pyridine]: the DC50 turned out to be 0.79 µM.
With `Fc1ccc(CN2CCN(c3ccc4nnc(C(F)(F)F)n4c3)CC2)cc1` [Example 191, 6-[4-[(4-fluorophenyl)methyl]piperazin-1-yl]-3-(trifluoromethyl)-[1,2,4]triazolo[4,3-a]pyridine], the DC50 came to 2.1 µM.
